From US10130693B2, “Peptides, combination of peptides and scaffolds for use in immunotherapeutic treatment of various cancers” (Immatics Biotechnologies GmbH, priority 2015, dated 2018)

System: HLA-A*24
Assay: MHC binding assay, UV-ligand exchange with beta2m ELISA (exchange yield), HLA-A*24
Design: species or system human
Settings: binding to HLA-A*24, UV-ligand exchange
Text: Candidate peptides for T cell based therapies according to the present invention were further tested for their MHC binding capacity (affinity). The individual peptide-MHC complexes were produced by UV-ligand exchange, where a UV-sensitive peptide is cleaved upon UV-irradiation, and exchanged with the peptide of interest as analyzed. Only peptide candidates that can effectively bind and stabilize the peptide-receptive MHC molecules prevent dissociation of the MHC complexes. To determine the yield of the exchange reaction, an ELISA was performed based on the detection of the light chain (β2m) of stabilized MHC complexes. The assay was performed as generally described in Rodenko et al. (Rodenko et al., 2006).
96 well MAXISorp plates (NUNC) were coated over night with 2 ug/ml streptavidin in PBS at room temperature, washed 4× and blocked for 1 h at 37° C. in 2% BSA containing blocking buffer. […] Peptide-MHC monomers of the UV-exchange reaction were diluted 100 fold in blocking buffer. Samples were incubated for 1 h at 37° C., washed four times, incubated with 2 ug/ml HRP conjugated anti-β2m for 1h at 37° C., washed again and detected with TMB solution that is stopped with […]. Absorption was measured at 450 nm. Candidate peptides that show a high exchange yield (preferably higher than 50%, most preferred higher than 75%) are generally preferred for a generation and production of antibodies or fragments thereof, and/or T cell receptors or fragments thereof, as they show sufficient avidity to the MHC molecules and prevent dissociation of the MHC complexes.

Peptide exchange (MHC class I binding score, peptide exchange yield) | Substance
+++ (50%-75% = +++) | 200 (VFIHHLPQF; listed as Homo sapiens) [compound 200]
+++ (50%-75% = +++) | 201 (GYNPNRVFF; listed as Homo sapiens) [compound 201]
+++ (50%-75% = +++) | 202 (RYVEGIVSL; listed as Homo sapiens) [compound 202]
+++ (50%-75% = +++) | 204 (EYLSTCSKL; listed as Homo sapiens) [compound 204]
+++ (50%-75% = +++) | 205 (VYPVVLNQI; listed as Homo sapiens) [compound 205]
++++ (>=75% = ++++) | 206 (NYLDVATFL; listed as Homo sapiens) [compound 206]
+++ (50%-75% = +++) | 207 (LYSDAFKFIVF; listed as Homo sapiens) [compound 207]
++++ (>=75% = ++++) | 208 (TYLEKIDGF; listed as Homo sapiens) [compound 208]
++++ (>=75% = ++++) | 209 (AFIETPIPLF; listed as Homo sapiens) [compound 209]
++++ (>=75% = ++++) | 210 (IYAGVGEFSF; listed as Homo sapiens) [compound 210]
++++ (>=75% = ++++) | 211 (VFKSEGAYF; listed as Homo sapiens) [compound 211]
++ (20%-49% = ++) | 212 (SYAPPSEDLF; listed as Homo sapiens) [compound 212]
++ (20%-49% = ++) | 213 (SYAPPSEDLFL; listed as Homo sapiens) [compound 213]
+++ (50%-75% = +++) | 214 (KYLMELTLI; listed as Homo sapiens) [compound 214]
++ (20%-49% = ++) | 215 (SYVASFFLL; listed as Homo sapiens) [compound 215]
+++ (50%-75% = +++) | 216 (FYVNVKEQF; listed as Homo sapiens) [compound 216]
++++ (>=75% = ++++) | 217 (IYISNSIYF; listed as Homo sapiens) [compound 217]
+++ (50%-75% = +++) | 218 (LYSELNKWSF; listed as Homo sapiens) [compound 218]
+++ (50%-75% = +++) | 219 (SYLKAVFNL; listed as Homo sapiens) [compound 219]
++++ (>=75% = ++++) | 220 (SYSEIKDFL; listed as Homo sapiens) [compound 220]
++++ (>=75% = ++++) | 221 (KYIGNLDLL; listed as Homo sapiens) [compound 221]

Peptide exchange (MHC class I binding score, peptide exchange yield) | Substance
++++ (>=75% = ++++) | 223 (TFITQSPLL; listed as Homo sapiens) [compound 223]
+++ (50%-75% = +++) | 224 (PYFFANQEF; listed as Homo sapiens) [compound 224]
+++ (50%-75% = +++) | 225 (TYTNTLERL; listed as Homo sapiens) [compound 225]
++ (20%-49% = ++) | 226 (MYLKLVQLF; listed as Homo sapiens) [compound 226]
+++ (50%-75% = +++) | 227 (IYRFITERF; listed as Homo sapiens) [compound 227]
+++ (50%-75% = +++) | 228 (IYQYVADNF; listed as Homo sapiens) [compound 228]
+++ (50%-75% = +++) | 229 (IYQFVADSF; listed as Homo sapiens) [compound 229]
+++ (50%-75% = +++) | 230 (TYGMVMVTF; listed as Homo sapiens) [compound 230]
++++ (>=75% = ++++) | 231 (AFADVSVKF; listed as Homo sapiens) [compound 231]
+++ (50%-75% = +++) | 232 (YYLSDSPLL; listed as Homo sapiens) [compound 232]
+++ (50%-75% = +++) | 233 (QYLTAAALHNL; listed as Homo sapiens) [compound 233]
+++ (50%-75% = +++) | 234 (SYLPAIWLL; listed as Homo sapiens) [compound 234]
+++ (50%-75% = +++) | 235 (VYKDSIYYI; listed as Homo sapiens) [compound 235]
+++ (50%-75% = +++) | 236 (VYLPKIPSW; listed as Homo sapiens) [compound 236]
+++ (50%-75% = +++) | 237 (KYVGQLAVL; listed as Homo sapiens) [compound 237]
+++ (50%-75% = +++) | 239 (VYAIFRILL; listed as Homo sapiens) [compound 239]
+++ (50%-75% = +++) | 240 (YYFFVQEKI; listed as Homo sapiens) [compound 240]
+++ (50%-75% = +++) | 241 (SYVKVLHHL; listed as Homo sapiens) [compound 241]
+++ (50%-75% = +++) | 242 (VYGEPRELL; listed as Homo sapiens) [compound 242]
+++ (50%-75% = +++) | 243 (SYLELANTL; listed as Homo sapiens) [compound 243]
+++ (50%-75% = +++) | 244 (VHFEDTGKTLLF; listed as Homo sapiens) [compound 244]

Peptide exchange (MHC class I binding score, peptide exchange yield) | Substance
+++ (50%-75% = +++) | 245 (LYPQLFVVL; listed as Homo sapiens) [compound 245]
++ (20%-49% = ++) | 246 (KYLSVQLTL; listed as Homo sapiens) [compound 246]
+++ (50%-75% = +++) | 247 (SFTKTSPNF; listed as Homo sapiens) [compound 247]
++++ (>=75% = ++++) | 248 (AFPTFSVQL; listed as Homo sapiens) [compound 248]
++++ (>=75% = ++++) | 249 (RYHPTTCTI; listed as Homo sapiens) [compound 249]
++ (20%-49% = ++) | 250 (KYPDIASPTF; listed as Homo sapiens) [compound 250]
+++ (50%-75% = +++) | 251 (VYTKALSSL; listed as Homo sapiens) [compound 251]
++++ (>=75% = ++++) | 252 (AFGQETNVPLNNF; listed as Homo sapiens) [compound 252]
+++ (50%-75% = +++) | 253 (IYGFFNENF; listed as Homo sapiens) [compound 253]
+++ (50%-75% = +++) | 254 (KYLESSATF; listed as Homo sapiens) [compound 254]
+++ (50%-75% = +++) | 255 (VYQKIILKF; listed as Homo sapiens) [compound 255]
+++ (50%-75% = +++) | 256 (VFGKSAYLF; listed as Homo sapiens) [compound 256]
+++ (50%-75% = +++) | 257 (IFIDNSTQPLHF; listed as Homo sapiens) [compound 257]
+++ (50%-75% = +++) | 258 (AYAQLGYLL; listed as Homo sapiens) [compound 258]
++ (20%-49% = ++) | 259 (YFIKSPPSQLF; listed as Homo sapiens) [compound 259]
++++ (>=75% = ++++) | 260 (VYMNVMTRL; listed as Homo sapiens) [compound 260]
++++ (>=75% = ++++) | 261 (GYIKLINFI; listed as Homo sapiens) [compound 261]
++++ (>=75% = ++++) | 262 (VYSSQFETI; listed as Homo sapiens) [compound 262]
+++ (50%-75% = +++) | 263 (RYILENHDF; listed as Homo sapiens) [compound 263]
++++ (>=75% = ++++) | 264 (LYTETRLQF; listed as Homo sapiens) [compound 264]
